Test results from article PMC10528180 (Foods, 2023).
Read-outs that look alike come from different tables or passages of the source.

Columns and labels:
α-glucosidase = biological target: T1, α-glucosidase (Saccharomyces cerevisiae, UniProt P53341); experiment: biochemical; conditions: for inhibition at 500 µM: read-out: α-Glucosidase inhibition
T1 construct: purchased Sigma-Aldrich Co
Method: (§1) The other reagents used in this experiment are analytically pure reagents purchased from Sigma-Aldrich Co. (St. Louis, MI, USA) unless specified otherwise.
(§2) The in vitro α-glucosidase activity assay was determined using spectrophotometry, as previously reported, with only minor modifications. In phosphate buffer with a pH of 6.8, 0.5 U/mL of α-glucosidase and the appropriate quantity of p-nitrophenyl-D-glucopyranoside (pNGP) were produced. […] Gradient dilution with a phosphate-buffered solution was used to create sample solutions of various concentrations. First, different concentrations of compound (10 μL), an enzyme solution (40 μL), and potassium phosphate buffer (100 μL) were pre-incubated in 96-well plates at 37 °C for 10 min.
(§3) The enzymatic inhibitory activity of the tested compounds was calculated using the following formula: Inhibition %=[(Abs control−Abs sample)/Abs control]×100
(§4) The IC50 values of the tested compounds were calculated using nonlinear fitting (logit method).

db/db mice = experiment: Postprandial blood glucose level measurement after oral starch load; format: in vivo; conditions: 100 mg/kg, oral starch 2 g/kg
Method: db/db mice and C57BL/6J mice were purchased f0rom Beijing Zhishan Health Medical Research Institute. The animal testing procedure was approved by Beijing Huayuan Times Technology Co., Ltd Ethics Committee on the Management and Welfare of Laboratory Animals. (Ethics review batch number: HYSD2023-04) and strictly follows the local and national codes of ethics. All mice were placed in a control chamber at 25 °C and 60% relative humidity with a light/dark period of 12/12 h. During this period, all mice had free access to normal feed and water. […] All mice were given starch (2 g/kg) orally 60 min after treatment. Blood samples were taken from the caudal vein and blood glucose was measured after 0, 30, 60, and 120 min. The area under the curve (AUC) was calculated using the trapezoidal rule.

α-amylase = biological target: T2, α-amylase (Sus scrofa, UniProt P00690); experiment: In vitro α-amylase activity assay (G3-CNP, absorbance 405 nm); format: biochemical, porcine; conditions: for inhibition at 500 µM: read-out: α-Amylase inhibition
T2 construct: α-amylase (EC 232-565-6, powder, ≥5 units/mg solid) isolated from porcine pancreas; purchased Sigma-Aldrich Co; host or cells: porcine pancreas
T2 sequence (P00690 16-511): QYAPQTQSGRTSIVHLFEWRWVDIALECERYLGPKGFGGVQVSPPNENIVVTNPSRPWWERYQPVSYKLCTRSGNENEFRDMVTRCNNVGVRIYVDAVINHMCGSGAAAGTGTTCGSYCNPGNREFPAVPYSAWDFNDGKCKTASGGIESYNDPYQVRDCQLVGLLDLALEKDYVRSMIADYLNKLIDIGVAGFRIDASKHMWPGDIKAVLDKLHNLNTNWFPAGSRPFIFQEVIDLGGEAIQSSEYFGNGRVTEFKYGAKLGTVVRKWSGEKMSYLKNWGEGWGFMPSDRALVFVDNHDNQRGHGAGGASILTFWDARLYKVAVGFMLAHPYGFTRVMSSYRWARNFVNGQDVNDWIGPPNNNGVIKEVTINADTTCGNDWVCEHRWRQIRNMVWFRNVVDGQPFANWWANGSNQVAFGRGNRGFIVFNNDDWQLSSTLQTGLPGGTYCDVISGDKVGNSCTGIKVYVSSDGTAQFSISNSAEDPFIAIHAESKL
Method: as §1
as §2, with “modifications. A total” for “modifications. In phosphate buffer with a pH”, “of 5” for “of 6.8, 0.5”, “of α-amylase” for “of α-glucosidase”, “of 2-chloro-4-nitrophenyl α-D-maltotrioside (G3-CNP)” for “of p-nitrophenyl-D-glucopyranoside (pNGP)”
as §3, §4

[1] = read-out: α-amylase inhibition IC50±SEM
[2] = read-out: α-glucosidase inhibition IC50±SEM

T1 sequence (P53341 whole entry): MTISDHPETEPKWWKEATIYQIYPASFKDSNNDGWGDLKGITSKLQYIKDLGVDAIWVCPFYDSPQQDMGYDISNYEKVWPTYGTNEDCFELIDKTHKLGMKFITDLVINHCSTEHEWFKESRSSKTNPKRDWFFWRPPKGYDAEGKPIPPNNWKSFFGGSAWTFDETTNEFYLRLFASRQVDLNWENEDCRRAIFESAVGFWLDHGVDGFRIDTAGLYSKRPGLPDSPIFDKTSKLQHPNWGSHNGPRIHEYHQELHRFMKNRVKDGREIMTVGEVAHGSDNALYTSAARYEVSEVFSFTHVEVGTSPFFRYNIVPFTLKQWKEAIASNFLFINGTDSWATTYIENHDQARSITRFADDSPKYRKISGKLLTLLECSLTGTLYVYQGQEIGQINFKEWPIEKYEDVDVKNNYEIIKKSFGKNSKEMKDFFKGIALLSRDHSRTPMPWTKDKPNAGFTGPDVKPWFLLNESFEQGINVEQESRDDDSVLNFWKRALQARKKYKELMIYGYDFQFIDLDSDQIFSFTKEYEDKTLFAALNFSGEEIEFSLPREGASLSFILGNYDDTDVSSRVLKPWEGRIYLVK

Molecule	inhibition at 500 µM (α-glucosidase) [%]	IC50 (α-glucosidase) [µM]	inhibition at 500 µM (α-amylase; at 500 µM) [%]	IC50 (α-amylase; [1]) [µM]	also measured
C[C@H]1O[C@H](O[C@H]2[C@H](O)[C@@H](O)[C@@H](O[C@H]3[C@H](O)[C@@H](O)C(O)O[C@@H]3CO)O[C@@H]2CO)[C@H](O)[C@@H](O)[C@@H]1N[C@H]1C=C(CO)[C@@H](O)[C@H](O)[C@H]1O (stereo partly drawn) [Acarbose, reference compound]	49				glucose AUC (db/db mice): 43.0 mmol·h/L; reduction of glucose AUC of diabetic mice (db/db mice; vs model): 20.31%; inhibition at 500 µM (α-amylase): 99%
O=c1cc(-c2ccc(O)cc2)oc2cc(O[C@@H]3O[C@H](CO)[C@@H](O)[C@H](O)[C@H]3O)cc(O)c12 [Apigetrin]	74	187 ± 6.93	12		selectivity for glucosidase over α-amylase among the 12 compounds (α-glucosidase; inhibition at 500 µM of both enzymes compared): selective inhibition of glucosidase
O=c1c(O[C@@H]2O[C@@H](CO)[C@H](O)[C@H]2O)c(-c2ccc(O)c(O)c2)oc2cc(O)cc(O)c12 [Avicularin]	33	> 500	19		IC50 (α-amylase): > 500 µM
O=C(O[C@@H]1Cc2c(O)cc(O)cc2O[C@@H]1c1ccc(O)c(O)c1)c1cc(O)c(O)c(O)c1 [Epicatechin gallate]	61	> 250	62	> 250	
O=c1c(O[C@@H]2O[C@H](CO)[C@H](O)[C@H](O)[C@H]2O)c(-c2ccc(O)c(O)c2)oc2cc(O)cc(O)c12 [Hyperoside]	48	> 500	28	> 500	
O=c1cc(-c2ccc(O)cc2)oc2cc(O)c([C@@H]3O[C@H](CO)[C@@H](O)[C@H](O)[C@H]3O)c(O)c12 [Isovitexin]			43		IC50 (α-amylase): > 500 µM
O=c1cc(-c2ccccc2)oc2cc(O[C@@H]3O[C@H](CO)[C@@H](O)[C@H](O)[C@H]3O)c(O)c(O)c12 [Oroxin A]	10		60	> 250	IC50 (α-glucosidase; [2]): > 500 µM
O=c1c(O)c(-c2ccc(O)c(O)c2)oc2cc(O[C@@H]3O[C@H](CO)[C@@H](O)[C@H](O)[C@H]3O)c(O)c(O)c12 [Quercetagitrin]	56		71	> 125	IC50 (α-glucosidase; [2]): > 250 µM
C[C@@H]1O[C@@H](Oc2c(-c3ccc(O)c(O)c3)oc3cc(O)cc(O)c3c2=O)[C@H](O)[C@H](O)[C@H]1O [Quercitrin]	38	> 500	22	> 500	
O=C(O)C1OC(Oc2c(-c3ccc(O)c(O)c3)oc3cc(O)cc(O)c3c2=O)C(O)C(O)C1O (stereo not drawn) [Quercituron]	17		42	> 500	IC50 (α-glucosidase; [2]): > 500 µM
O=c1c(O[C@@H]2O[C@H](CO)[C@H](O)[C@H](O)[C@H]2O)c(-c2ccc(O)cc2)oc2cc(O)cc(O)c12 [Trifolin]			19	> 500	
Catechin gallate					α-Glucosidase inhibition (α-glucosidase; at 500 µM): 94%; α-Amylase inhibition (α-amylase; at 500 µM): 82%
